Experimental findings from patent publication US11987604B2, “Fusion-proteins based on human ferritin and protease-cleavable peptides and their use as chemotherapeutics carriers” (THENA BIOTECH S.R.L., priority 2017, dated 2024) are described below.

A word on the IC50: it is the concentration that gives 50% inhibition.

What all share (format): cell-based
Assay [1] deals with pancreatic PaCa 44 cancer cells. The assay can be described thus: XTT viability assay, PaCa 44. The following applies: Homo sapiens, Paca44 cells, read-out: killing efficacy (IC50). In general terms: Tetrazolium dyes change colour on reduction, which living cells bring about.
The subject of assay [2] is pancreatic Capan 1 cancer cells. The assay can be described thus: XTT viability assay, Capan 1. Conditions: Homo sapiens, Capan 1 cells, read-out: killing efficacy (IC50).
For assay [3], the system named is pancreatic MiaPaCa2 cancer cells. The assay can be described thus: XTT viability assay, MiaPaCa2. Conditions: Homo sapiens, MIA PaCa-2, read-out: killing efficacy (IC50).
In another assay the test system is SW480 colon cancer cells. The assay can be described thus: Cell internalization and localization by confocal microscopy, SW480. The following applies: SW480, 3 h incubation at 37° C., 20 μM MIT. As to the method: (§1) Left panels: Lamin A/C staining (nuclear membrane marker, green); central panels: MIT (blue); right panels: merge. The white bar indicates a 10 μm length.
(§2) MIT concentration is 20 μM in all experiments. The white bar indicates a 20 μm length.
(§3) To determine whether MIT containing HFt based constructs undergo cell surface binding and/or internalization, they were incubated with colon cancer cells SW480 and SW620 at 37° C. for 1 or 3 h and MIT associated fluorescence was visualized by confocal microscopy. […] In particular, MIT localizes in intranuclear structures assumed to be nucleoli on the basis of size, position and shape, as previously proposed for colon carcinoma and breast cancer cells.

The subject of a further assay is SW620 colon cancer cells. The assay is described as follows: Cell internalization and localization by confocal microscopy, SW620. The following applies: SW620, 3 h incubation at 37° C., 20 μM MIT. As to the method: as §1, §2, §3

Take `Nc1ccn([C@@H]2O[C@H](CO)[C@@H](O)C2(F)F)c(=O)n1` [Gemcitabine]: the values for the IC50 in assay [1], in assay [2] and in assay [3] were 6.75 µM, 2.8 µM and 1.15 µM, respectively.
With `O=C1c2c(O)ccc(O)c2C(=O)c2c(NCCNCCO)ccc(NCCNCCO)c21` [MIT, mitoxantrone], the “MIT localization in cells” value in the assay on SW480 colon cancer cells and in the assay with SW620 colon cancer cells was “partly present also in the cytoplasm” each time.
